{"source": "paper PMC8018653", "about": "“Gender-based differences in brain and plasma pharmacokinetics of letrozole in sprague-dawley rats: Application of physiologically-based pharmacokinetic modeling to gain quantitative insights” (PLoS ONE, 2021)", "key": {"[1]": {"assay": "Single dose plasma pharmacokinetics (4 mg/kg i.p.), NCA", "type": "in vivo, Sprague-Dawley rats", "conditions": "for Cmax / Tmax / AUC(0-t) / half-life: ip; for Cmax / Tmax / CL (systemic clearance), plasma / Half-life t1/2, plasma / AUC 0–12, plasma unbound / AUC 0–72, plasma unbound / Cmax, plasma unbound / AUC(0-t) / half-life: single dose 4 mg/kg i.p.; for Cmax: read-out: Cmax, plasma total; for Tmax: read-out: Tmax, plasma total; for AUC 0–12, plasma unbound / AUC 0–72, plasma unbound / Cmax, plasma unbound: fraction unbound 0.38; for half-life: read-out: Half-life t1/2, plasma (converted)", "protocol": "(§1) Age-matched (7–9 weeks) adult female (201–225 g; N = 10) and male (301–325 g; N = 10) jugular vein cannulated Sprague-Dawley rats (Charles River Laboratories) were used for this study. The experiments were conducted in strict accordance with the University of Cincinnati Institutional Animal Care and Use Committee (UC IACUC)-approved protocol (Protocol Number: 10-11-01-01) and all the studies were performed as per the highest international standards of animal welfare outlined by the NIH’s Guide for the Care and Use of Laboratory Animals. Upon arrival, animals were housed individually under pathogen-free, temperature and humidity-controlled environment on a 12/12 h light/dark cycle and were given access to standard chow and water ad libitum (ad-lib). To maintain the patency of the jugular vein catheters, they were flushed with normal saline and locked with the heparin-dextrose solution every other day.\nWithin 10 minutes of collection, plasma was separated by centrifugation of the blood samples at 4,000 rpm for 15 min. Microdialysis samples were collected simultaneously through the probes at the same time points from 0–12 hours.\n(§2) Letrozole was extracted from the plasma samples using the liquid-liquid extraction technique. Calibration standards were freshly prepared by spiking working letrozole solution into the blank rat plasma to give a concentration curve ranging from 5 to 5000 ng/ml. Briefly, 50 μl of the plasma sample/standard spiked with known letrozole concentration was transferred to a glass tube containing 1 mL of the extraction solvent methyl-tertiary-butyl ether. All the samples were then vortex mixed for 40 sec and centrifuged for 5 min. 800 μl of the supernatant was decanted into a clean test tube and evaporated to dryness using a CentriVap evaporator. The precipitate was reconstituted in 100 μl of the mobile phase and vortex mixed, following which, 50 μl sample volume was injected onto the HPLC system for analysis. The dialysis samples, on the other hand, were injected directly onto HPLC."}, "[2]": {"assay": "Steady state plasma pharmacokinetics (4 mg/kg i.p. once daily), NCA", "type": "in vivo, Sprague-Dawley rats", "conditions": "for Cmax / Tmax / AUC(0-t): Sprague-Dawley, rat, ip; for Cmax / Tmax / Rac’ (theoretical/predicted accumulation ratio, Eq 2) / AUC(0-t): plasma; for Cmax: read-out: Cmax, plasma total; for Tmax: read-out: Tmax, plasma total; for AUC 0–12, plasma unbound / AUC 0–24, plasma unbound / Cmax, plasma unbound: fraction unbound 0.38; for AUC(0-t): 4 mg/kg", "protocol": "as §1, §2"}, "P-glycoprotein (P-gp)": {"system": "P-glycoprotein (P-gp)", "conditions": "cited from earlier work"}, "[3]": {"set-up": "method as in PMID 23748921", "conditions": "cited from earlier work"}, "[4]": {"set-up": "method as in PMID 16489364", "conditions": "cited from earlier work"}, "[5]": {"conditions": "Sprague-Dawley, rat, plasma, female rats"}, "[6]": {"conditions": "Sprague-Dawley, rat, plasma, male rats"}, "[7]": {"conditions": "female rats, steady state, 4 mg/kg i.p. daily for 11 days"}, "[8]": {"conditions": "male rats, steady state, 4 mg/kg i.p. daily for 5 days"}, "[9]": {"conditions": "female rats, steady state, 11 days"}, "[10]": {"conditions": "male rats, steady state, 5 days"}}, "note": "Values joined by “and” are separate entries in the source; they are usually repeats but may differ in a detail not shown here. Identical values can stand only once. Like-named read-outs stand apart in the source and are kept apart here. Marks after values point to notes of the source that are not given here."}
{"smiles": "N#Cc1ccc(C(c2ccc(C#N)cc2)n2cncn2)cc1", "note": "[letrozole]", "values": [{"measurement": "clearance", "setting": "[1]; Sprague-Dawley, rat, plasma, intraperitoneal, 4 mg/kg, female rats, read-out: clearance observed in this study", "result": "~0.25", "unit": "mL/min"}, {"measurement": "Cmax", "setting": "[1]; [5]", "result": 1200, "unit": "ng/mL"}, {"measurement": "Tmax", "setting": "[1]; [5]", "result": 8.5, "unit": "h"}, {"measurement": "Cmax", "setting": "[1]; [6]", "result": 1060, "unit": "ng/mL"}, {"measurement": "Tmax", "setting": "[1]; [6]", "result": 6.5, "unit": "h"}, {"measurement": "CL (systemic clearance), plasma", "setting": "[1]; female rats", "result": "57.4 (13.0)*** ml/h/kg"}, {"measurement": "Half-life t1/2, plasma", "setting": "[1]; female rats, 4 mg/kg", "result": "34.0 (3.6)*** h"}, {"measurement": "AUC 0–12, plasma unbound", "setting": "[1]; female rats", "result": "4446 (1160) h.ng/ml"}, {"measurement": "AUC 0–72, plasma unbound", "setting": "[1]; female rats", "result": "20668 (4980) h.ng/ml"}, {"measurement": "Cmax, plasma unbound", "setting": "[1]; female rats", "result": "456 (60) ng/ml"}, {"measurement": "AUC(0-t)", "setting": "[1]; female, Sprague-Dawley, rat, plasma, 4 mg/kg, female rats, read-out: AUC 0–12, plasma total", "result": 11700, "unit": "ng·h/mL"}, {"measurement": "AUC(0-t)", "setting": "[1]; female, Sprague-Dawley, rat, plasma, 4 mg/kg, female rats, read-out: AUC 0–72, plasma total", "result": 54400, "unit": "ng·h/mL"}, {"measurement": "half-life", "setting": "[1]; female, Sprague-Dawley, rat, plasma, 4 mg/kg, female rats", "result": "~34", "unit": "h"}, {"measurement": "CL (systemic clearance), plasma", "setting": "[1]; male rats, 4 mg/kg", "result": "145.9 ± 14.0 ml/h/kg and 146 (14.0) ml/h/kg"}, {"measurement": "Half-life t1/2, plasma", "setting": "[1]; male rats, 4 mg/kg", "result": "9.2 (2.4) h and 9.23 h"}, {"measurement": "AUC 0–12, plasma unbound", "setting": "[1]; male rats", "result": "4066 (1140) h.ng/ml"}, {"measurement": "AUC 0–72, plasma unbound", "setting": "[1]; male rats", "result": "9447 (1920) h.ng/ml"}, {"measurement": "Cmax, plasma unbound", "setting": "[1]; male rats", "result": "403 (136) ng/ml"}, {"measurement": "AUC(0-t)", "setting": "[1]; male, Sprague-Dawley, rat, plasma, 4 mg/kg, male rats, read-out: AUC 0–12, plasma total", "result": 10700, "unit": "ng·h/mL"}, {"measurement": "AUC(0-t)", "setting": "[1]; male, Sprague-Dawley, rat, plasma, 4 mg/kg, male rats, read-out: AUC 0–72, plasma total", "result": 24900, "unit": "ng·h/mL"}, {"measurement": "half-life", "setting": "[1]; male, Sprague-Dawley, rat, plasma, 4 mg/kg, male rats", "result": "~9", "unit": "h"}, {"measurement": "Cmax", "setting": "[2]; [7]", "result": 4830, "unit": "ng/mL"}, {"measurement": "Tmax", "setting": "[2]; [7]", "result": 5.3, "unit": "h"}, {"measurement": "Cmax", "setting": "[2]; [8]", "result": 1490, "unit": "ng/mL"}, {"measurement": "Tmax", "setting": "[2]; [8]", "result": 3.3, "unit": "h"}, {"measurement": "Rac plasma (observed accumulation ratio, AUC0-12)", "setting": "[2]; female rats, Day 11 / Day 1", "result": 4.2}, {"measurement": "Rac plasma (observed accumulation ratio, Cmax)", "setting": "[2]; female rats, Day 11 / Day 1", "result": 4.0}, {"measurement": "Rac’ (theoretical/predicted accumulation ratio, Eq 2)", "setting": "[2]; female rats", "result": 2.6}, {"measurement": "CL (systemic clearance), plasma", "setting": "[2]; [7]", "result": "39.3 (5.5)* ml/h/kg"}, {"measurement": "AUC 0–12, plasma unbound", "setting": "[2]; [9]", "result": "18734 (2360) h.ng/ml"}, {"measurement": "AUC 0–24, plasma unbound", "setting": "[2]; [9]", "result": "39129 (5267) h.ng/ml"}, {"measurement": "Cmax, plasma unbound", "setting": "[2]; [9]", "result": "1835 (359) ng/ml"}, {"measurement": "AUC(0-t)", "setting": "[2]; female, female rats, steady state, 4 mg/kg i.p. daily for 11 days, read-out: AUC 0–12, plasma total", "result": 49300, "unit": "ng·h/mL"}, {"measurement": "AUC(0-t)", "setting": "[2]; female, female rats, steady state, 4 mg/kg i.p. daily for 11 days, read-out: AUC 0–24, plasma total", "result": 103000, "unit": "ng·h/mL"}, {"measurement": "AUC(0-t)", "setting": "[2]; female, female rats, steady state, 4 mg/kg i.p. daily for 11 days, read-out: plasma AUC 0–24", "result": 103000, "unit": "ng·h/mL"}, {"measurement": "observed accumulation at steady state (plasma Cmax and AUC0-12)", "setting": "[2]; male rats", "result": "approximately 1.4 fold"}, {"measurement": "Rac plasma (observed accumulation ratio, AUC0-12)", "setting": "[2]; male rats, Day 5 / Day 1", "result": 1.4}, {"measurement": "Rac plasma (observed accumulation ratio, Cmax)", "setting": "[2]; male rats, Day 5 / Day 1", "result": 1.4}, {"measurement": "Rac’ (theoretical/predicted accumulation ratio, Eq 2)", "setting": "[2]; male rats", "result": 1.2}, {"measurement": "CL (systemic clearance), plasma", "setting": "[2]; [8]", "result": "200.6 (98) ml/h/kg"}, {"measurement": "AUC 0–12, plasma unbound", "setting": "[2]; [10]", "result": "5624 (2430) h.ng/ml"}, {"measurement": "AUC 0–24, plasma unbound", "setting": "[2]; [10]", "result": "9424 (4660) h.ng/ml"}, {"measurement": "Cmax, plasma unbound", "setting": "[2]; [10]", "result": "566 (209) ng/ml"}, {"measurement": "AUC(0-t)", "setting": "[2]; male, male rats, steady state, 4 mg/kg i.p. daily for 5 days, read-out: AUC 0–12, plasma total", "result": 14800, "unit": "ng·h/mL"}, {"measurement": "AUC(0-t)", "setting": "[2]; male, male rats, steady state, 4 mg/kg i.p. daily for 5 days, read-out: AUC 0–24, plasma total", "result": 24800, "unit": "ng·h/mL"}, {"measurement": "AUC(0-t)", "setting": "[2]; male, male rats, steady state, 4 mg/kg i.p. daily for 5 days, read-out: plasma AUC 0–24", "result": 24800, "unit": "ng·h/mL"}, {"measurement": "systemic clearance, difference between male and female rats", "setting": "[2]; steady state", "result": "approximately 5.0 fold"}, {"measurement": "substrate for the efflux transporter P-glycoprotein (P-gp)", "setting": "P-glycoprotein (P-gp)", "result": "not a substrate"}, {"measurement": "brain-to-plasma partition coefficients", "setting": "[3]; brain and brain tumor tissue, female Sprague-Dawley rats", "result": "0.5–1.0"}, {"measurement": "intra-tumoral levels relative to the contralateral tumor-free region", "setting": "[3]", "result": "1.5 to 2", "unit": "fold"}, {"measurement": "oral bioavailability", "setting": "[4]", "result": "~100", "unit": "%"}]}
